Assay results taken from patent publication US20110091570A1, “Compositions and Devices for Antisepsis and Anticoagulation” (priority 2008, published 2011).
Where “and” joins values, the source holds several entries; their conditions need not be identical. Equal values may be shown once.

Tests used:
[1] = system: Staphylococcus epidermidis; test: Bactericidal activity of NCT without and with heparin (CFU counts); type: cell-based
Pseudomonas aeruginosa = test: as above; type: cell-based
Fibrinogen = target: T1, Fibrinogen (Homo sapiens, UniProt P02671+P02675+P02679); test: Fibrinogen, Multifibren U test; type: biochemical; details: for Fibrinogen, mean value: mean of 11 subjects
T1 construct: from tissue; host or cells: citrated whole blood of volunteers
T1 sequence (P02671 20-629 limits assumed): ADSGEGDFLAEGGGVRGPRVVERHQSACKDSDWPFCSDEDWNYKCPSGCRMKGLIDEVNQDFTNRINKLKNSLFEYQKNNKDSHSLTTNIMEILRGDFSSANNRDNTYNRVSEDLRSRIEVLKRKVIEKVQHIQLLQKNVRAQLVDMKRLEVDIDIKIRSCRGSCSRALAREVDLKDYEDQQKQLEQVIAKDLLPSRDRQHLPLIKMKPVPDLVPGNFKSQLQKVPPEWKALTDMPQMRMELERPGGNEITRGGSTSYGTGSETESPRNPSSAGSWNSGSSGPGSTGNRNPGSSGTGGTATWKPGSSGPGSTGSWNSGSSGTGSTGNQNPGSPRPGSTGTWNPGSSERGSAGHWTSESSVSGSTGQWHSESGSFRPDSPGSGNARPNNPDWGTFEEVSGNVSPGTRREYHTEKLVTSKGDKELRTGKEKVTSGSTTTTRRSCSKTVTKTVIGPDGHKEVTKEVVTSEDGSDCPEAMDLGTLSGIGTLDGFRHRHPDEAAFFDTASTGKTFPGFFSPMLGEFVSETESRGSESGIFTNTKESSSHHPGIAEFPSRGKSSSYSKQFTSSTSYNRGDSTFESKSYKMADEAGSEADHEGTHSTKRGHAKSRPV
T1 sequence (P02675 31-491): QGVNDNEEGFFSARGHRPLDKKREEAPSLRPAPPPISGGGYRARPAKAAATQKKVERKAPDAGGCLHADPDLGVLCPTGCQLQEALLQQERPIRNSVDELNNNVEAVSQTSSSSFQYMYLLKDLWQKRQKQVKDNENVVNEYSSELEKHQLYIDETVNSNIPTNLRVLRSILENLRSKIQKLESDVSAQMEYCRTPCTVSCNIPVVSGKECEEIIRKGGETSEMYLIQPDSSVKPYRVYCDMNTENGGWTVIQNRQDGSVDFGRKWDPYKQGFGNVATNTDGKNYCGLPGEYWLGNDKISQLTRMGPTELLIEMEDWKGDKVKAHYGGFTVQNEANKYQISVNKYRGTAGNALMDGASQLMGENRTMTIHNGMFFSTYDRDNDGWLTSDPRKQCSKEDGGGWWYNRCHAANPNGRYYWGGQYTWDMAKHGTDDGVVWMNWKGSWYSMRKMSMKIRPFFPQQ
T1 sequence (P02679 27-453): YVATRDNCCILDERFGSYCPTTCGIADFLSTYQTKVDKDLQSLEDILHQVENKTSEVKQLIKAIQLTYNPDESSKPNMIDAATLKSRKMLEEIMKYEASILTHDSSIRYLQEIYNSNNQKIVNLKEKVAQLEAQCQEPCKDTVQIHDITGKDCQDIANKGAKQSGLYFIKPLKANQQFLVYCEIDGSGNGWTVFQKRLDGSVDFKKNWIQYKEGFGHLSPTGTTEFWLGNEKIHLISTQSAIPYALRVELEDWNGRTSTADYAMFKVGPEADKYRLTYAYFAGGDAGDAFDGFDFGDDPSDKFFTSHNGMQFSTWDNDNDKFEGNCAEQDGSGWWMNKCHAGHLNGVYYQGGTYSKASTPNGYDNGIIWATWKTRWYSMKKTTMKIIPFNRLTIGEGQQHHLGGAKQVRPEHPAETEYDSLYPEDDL
Protocol: Whole blood was taken from a single volunteer and enriched with trisodium citrate (0.3 mL of a 0.106 molar solution per 3 mL whole blood) (S-Monovette®, Sarstedt, Nümbrecht, Germany). Portions of 1.8 mL citrate blood were mixed with 0.2 mL NCT in 0.9% saline. The following final (after dilution in blood) NCT concentrations were tested separately: 1% (55 mM); 0.5% (27.5 mM); 0.25% (13.75 mM); 0.1% (5.5 mM); 0.05% (2.75 mM); 0.025% (1.375 mM); and 0.01% (0.55 mM). A control without NCT was performed in parallel. The following commercial coagulation tests were performed according to the prescription of the manufacturer: prothrombin time (PT) was determined using Thromborel® S test (Dade Behring GmbH, Marburg, Germany), activated partial thromboplastin time (aPTT) was determined using Pathromtin* SL test (Dade Behring GmbH, Marburg, Germany); thrombin time (TT) was determined using BC Thrombin Reagent test (Dade Behring GmbH, Marburg, Germany); and fibrinogen was determined using Multifibren* U test (Dade Behring GmbH, Marburg, Germany).
(§1) Whole blood was taken from 11 volunteers and enriched with trisodium citrate (0.3 mL of a 0.106 molar solution per 3 mL whole blood) (S-Monovette®, Sarstedt, Nümbrecht, Germany). Commercial coagulation tests (as described in Example 6) were performed with the following samples: […]

citrate blood = test: International normalized ratio (INR); type: biochemical, human; details: Example 7; for International normalized ratio (INR): individual subjects 1-11; for International normalized ratio (INR), mean value: mean of 11 subjects
Protocol: as §1

human eyes = human eyes [Ref. 13]; cited from earlier work
[2] = system: omniresistant Pseudomonas aeruginosa; details: NCT irrigations, three patients [Ref 18]; cited from earlier work
[3] = 0.1% NCT, virtually identical experiments
[4] = 1% NCT, 125 IE/mL heparin, pH 7.1, 37° C., 1-10 min

With `O=S(=O)(O)CCNCl` [NCT, N-chlorotaurine] the “influence of heparin on the killing of bacteria” value [1, 3] was “no statistically significant influence of heparin on the killing of bacteria”, the “killing activity of NCT with vs without heparin” value [1, 4] was “no difference in the killing activity” and the “influence of heparin on the killing of bacteria” value (Pseudomonas aeruginosa; [3]) was “no statistically significant influence of heparin on the killing of bacteria”. For the same molecule, the “killing activity of NCT with vs without heparin” value (Pseudomonas aeruginosa; [4]) was “no difference in the killing activity”, the Fibrinogen (Fibrinogen; Example 6, single volunteer, 0.01% (0.55 mM) NCT final) was 281.4 and the Fibrinogen (Fibrinogen; Example 6, single volunteer, 0.025% (1.375 mM) NCT final) was 199.4. The Fibrinogen (Fibrinogen; Example 6, single volunteer, 0.05% (2.75 mM) NCT final) was “not detectable”, the Fibrinogen (Fibrinogen; Example 6, single volunteer, 0.1% (5.5 mM) NCT final) was “not detectable” and the Fibrinogen (Fibrinogen; Example 6, single volunteer, 0.25% (13.75 mM) NCT final) was “not detectable”. The Fibrinogen (Fibrinogen; Example 6, single volunteer, 0.5% (27.5 mM) NCT final) was “not detectable”, the Fibrinogen (Fibrinogen; Example 6, single volunteer, 1% (55 mM) NCT final) was “not detectable” and the Fibrinogen (Fibrinogen; Example 7, 0.01% NCT, individual subjects 1-11) was 170 mg/dL and 112 mg/dL and 240 mg/dL and 87 mg/dL and 194 mg/dL and 178 mg/dL and 226 mg/dL and 237 mg/dL and 224 mg/dL and 230 mg/dL and 215 mg/dL. For the same molecule, the “Fibrinogen, mean value” (Fibrinogen; Example 7, 0.01% NCT) was 192.1 mg/dL, the Fibrinogen (Fibrinogen; Example 7, 0.025% NCT, individual subjects 1-11) was 40 mg/dL and the “Fibrinogen, mean value” (Fibrinogen; Example 7, 0.025% NCT) was 40.0 mg/dL. For the same molecule, the “International normalized ratio (INR)” value (citrate blood; 0.01% NCT) was 1.2 (5×) and 1.3 (3×) and 1.1 (3×), the “International normalized ratio (INR), mean value” (citrate blood; 0.01% NCT) was 1.2 and the “International normalized ratio (INR)” value (citrate blood; 0.025% NCT) was 2.6 and 3.3 (2×) and 1.5 and 6 and 4.2 and 2.8 and 4.4 and 2 and 2.9 and 2.3. For the same molecule, the “International normalized ratio (INR), mean value” (citrate blood; 0.025% NCT) was 3.2, the “tolerability in topical and localized applications” value (human eyes) was “relatively safe and well-tolerated” and the “eradication of bacteria from the urinary bladder” value [2] was “possible to eradicate bacteria from the urinary bladder”.
